Reference: article PMC10514136, “Peptide-conjugated antimiRs improve myotonic dystrophy type 1 phenotypes by promoting endogenous MBNL1 expression” (Molecular Therapy. Nucleic Acids, 2023)

Key:
[1] = tested on: DM1 cells; experiment: Cell growth inhibition of DM1 cells, gymnosis vs transfection at EC50; type: cell-based, human; conditions: at the EC50 concentration
Procedure: Immortalized MyoD-inducible (doxycycline) DM1 and control fibroblasts were kindly provided by Dr Furling (Institute of Myology, Paris, France).[38] For the activity assay, cells were seeded in 6-well plates at a density of 8 × 10^4 cells/well and grown in DMEM with 4.5 g/L glucose, 1% P/S, and 10% FBS (Sigma, St. Louis, MO). To transdifferentiate fibroblasts into myoblasts by inducing MyoD expression, the cells were plated in muscle differentiation medium containing DMEM with 4.5 g L^−1 glucose, 1% P/S, 2% horse serum, 1% apo-transferrin (10 mg mL^−1), 0.1% insulin (10 mg mL^−1), and 0.02% doxycycline (10 mg mL^−1). In all cases, the cells were grown at 37°C in a humidified atmosphere containing 5% CO2. Transdifferentiation was induced at day 0, and transfection was performed by lipofection with X-tremeGENE HP (Roche, Basel, Switzerland) 24 h later, with antimiRs and test compounds in the cell medium at different concentrations (from 0.4 nM to 5 μM). […]
Cells seeded at 10^5 cells/mL in 96-well plates were transfected 24 h later with antimiRs as described previously.[20] After 96 h, cell proliferation was measured using the CellTiter 96 AQueous Non-Radioactive Cell Proliferation Assay (Promega, Madison, WI). Absorbance levels were determined using an Infinite M200 PRO plate reader (Tecan, Männedorf, Switzerland) and the TC50 was calculated using non-linear least-squares regression.

[2] = tested on: Mbnl2 mRNA; experiment: Mbnl2 transcript levels in muscle by qRT-PCR; type: in vivo, mouse; conditions: HSALR mice, 9.2 mg/kg (mean) i.v. every 2 weeks x3, day 45; gastrocnemius, vs PBS-treated HSALR
Procedure: Total RNA from murine gastrocnemius and quadriceps muscle was isolated using the miRNeasy Mini Kit (QIAGEN, Hilden, Germany) according to the manufacturer's instructions. One microgram of RNA was digested with DNase I (Invitrogen, Carlsbad, CA) and reverse transcribed with SuperScript II (Invitrogen) using random hexanucleotides. For subsequent PCR reactions, 20 ng of cDNA was used with GoTaq polymerase (Promega). Specific primers were used to analyze the alternative splicing of Nfix, Atp2a1, and Clcn1 in mouse samples (both muscles). Gapdh levels established the endogenous reference levels using 0.2 ng of cDNA. […] PSR index was defined as value%SI minus X %DSI , divided by […] (SI, splicing inclusion of each sample; DSI, disease splicing inclusion; HSI, healthy splicing inclusion). Overall, PSR indicates the amount in both muscles analyzed. […] Commercial TaqMan probes (QIAGEN) were used for mouse (Mbnl1 and Mbnl2; FAM-labeled probes) and reference (GAPDH; MAX-labeled probe) genes. Results were normalized to Gapdh endogenous gene expression. Expression levels were measured using a QuantStudio 5 Real-Time PCR System (Applied Biosystems, Foster City, CA). […] Mouse handling and experimental procedures followed the European law regarding laboratory animal care and experimentation (2003/65/C.E.) and were approved by Conselleria de Agricultura, […] […]

[3] = tested on: miR-23b; experiment: Functional miR-23b levels in gastrocnemius and quadriceps by qRT-PCR; type: in vivo, mouse; conditions: HSALR mice, 9.2 mg/kg (mean) i.v. every 2 weeks x3, day 45, vs PBS-treated HSALR
Procedure: (§1) miRNA expression in muscle tissues was quantified using specific miRCURY-locked nucleic acid microRNA PCR primers (QIAGEN) according to the manufacturer's instructions. […] Expression levels were measured using a QuantStudio 5 Real-Time PCR System (Applied Biosystems, Foster City, CA). […] Mouse handling and experimental procedures followed the European law regarding laboratory animal care and experimentation (2003/65/C.E.) and were approved by Conselleria de Agricultura, […] (reference no. A1539961490857). We used homozygous transgenic HSA^LR (line 20 b) mice,[90] which were kindly provided by Dr Thornton (Rochester, NY) and were housed and bred in our animal facility. […] The mice were randomly allocated to the different treatments as follows: in each cage, each mouse was ear-marked as it was taken out, and each mouse was then assigned to a different treatment. Animals were injected biweekly intravenously with 150 μL of 1× PBS vehicle (controls; […] Mice were sacrificed 45 days after the first injection and the tissues of interest were frozen in liquid nitrogen for the molecular and histological assays. All the mice used in this study ranged from 5 to 5.5 months of age and all were males.

[4] = tested on: miR-218; experiment: Functional miR-218 levels in gastrocnemius and quadriceps by qRT-PCR; type: in vivo, mouse; conditions: HSALR mice, 9.2 mg/kg (mean) i.v. every 2 weeks x3, day 45, vs PBS-treated HSALR
Procedure: as §1

[5] = tested on: HSALR mice; experiment: Electromyography, myotonia grade; type: in vivo, mouse; conditions: 9.2 mg/kg (mean) i.v. every 2 weeks x3, 5-point scale, quadriceps of both hind limbs
Excerpt: Mouse handling and experimental procedures followed the European law regarding laboratory animal care and experimentation (2003/65/C.E.) and were approved by Conselleria de Agricultura, […] (reference no. A1539961490857). We used homozygous transgenic HSA^LR (line 20 b) mice,[90] which were kindly provided by Dr Thornton (Rochester, NY) and were housed and bred in our animal facility. […] The mice were randomly allocated to the different treatments as follows: in each cage, each mouse was ear-marked as it was taken out, and each mouse was then assigned to a different treatment. Animals were injected biweekly intravenously with 150 μL of 1× PBS vehicle (controls; […] Mice were sacrificed 45 days after the first injection and the tissues of interest were frozen in liquid nitrogen for the molecular and histological assays. All the mice used in this study ranged from 5 to 5.5 months of age and all were males. Electromyography was performed before the treatment, at the halfway point and time of sacrifice under general anesthesia, as described previously.[18] The determination was performed blindly to eliminate bias.

Row | Substance | toxicity (cell growth inhibition), gymnosis compared with transfection [1] | relative expression of Mbnl2 [2] | levels of functional miR-23b [3] | levels of functional miR-218 [4] | myotonia (electromyography), change at day 45 [5]
1 | 9b2KC-23b (antisense GGUAAUCCCUGGCAAUGUGAU; all phosphorodiamidate morpholino (PMO), T or U not given here; Pip9b2KC peptide conjugated) | toxicity was significantly reduced | 2.65 fold | – | – | –
2 | TCTTACCTCAGTTACAATTTA-Pip9b2 [Scramble, reference compound] | – | – | did not reduce functional levels | did not reduce functional levels | myotonia remained unchanged
